Assay results published in ChEMBL document CHEMBL5230142, “Natural spirocyclic alkaloids and polyphenols as multi target dementia leads” (Bioorg Med Chem, 2021).

Columns and labels:
SH-SY5Y [1] = assay: Neuroprotective activity in human SH-SY5Y cells assessed as prevention of glyceraldehyde-induced neurite shortening at 10 uM incubated for 72 hrs by microsocopic analysis; type: functional
Beta-secretase 1 = Beta-secretase 1 (Homo sapiens, UniProt P56817); assay: Inhibition of human BACE1 (1 to 454 residues) using APP harboring Swedish Lys/Met mutant-derived peptide as substrate by FRET assay
VSMC [2] = assay: Cytotoxicity against rat VSMC cells assessed as reduction in cell viability at 20 uM measured after 4 days; type: toxicity, cell-based; conditions: 96 h, time 4 day
VSMC [3] = assay: Cytotoxicity against rat VSMC cells assessed as reduction in cell viability at 50 uM measured after 4 days; type: toxicity, cell-based; conditions: 96 h, time 4 day
VSMC [4] = assay: Cytotoxicity against rat VSMC cells assessed as reduction in cell viability at 5 uM measured after 4 days; type: toxicity, cell-based; conditions: 96 h, time 4 day
SH-SY5Y [5] = assay: Neuroprotective activity in human SH-SY5Y cells assessed as prevention of glyceraldehyde-induced neurite shortening at 1 uM incubated for 72 hrs by microsocopic analysis; type: functional
[6] = Drug metabolism in RN rat assessed as epimerization ratio at 20 mg/kg, po; type: ADME, organism-based; conditions: in vivo, read-out: Drug metabolism
[7] = target: T1, 5-hydroxytryptamine receptor 1A (Homo sapiens, UniProt P08908); assay: Agonist activity at 5HT1A (unknown origin) receptor
T1 sequence (P08908 whole entry): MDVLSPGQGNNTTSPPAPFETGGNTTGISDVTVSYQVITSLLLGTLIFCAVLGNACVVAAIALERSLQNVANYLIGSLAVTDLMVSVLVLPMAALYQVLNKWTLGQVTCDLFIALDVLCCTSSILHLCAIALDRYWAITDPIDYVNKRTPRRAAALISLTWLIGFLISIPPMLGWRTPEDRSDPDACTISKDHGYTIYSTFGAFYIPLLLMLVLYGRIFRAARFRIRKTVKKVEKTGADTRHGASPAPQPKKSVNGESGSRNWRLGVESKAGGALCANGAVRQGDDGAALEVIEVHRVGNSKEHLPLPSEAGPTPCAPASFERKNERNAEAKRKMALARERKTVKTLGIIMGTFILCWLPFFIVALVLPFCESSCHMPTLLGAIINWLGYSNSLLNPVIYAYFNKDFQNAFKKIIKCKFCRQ

[8] = Oral bioavailability in RN rat at 20 mg/kg; type: ADME, organism-based; conditions: in vivo
[9] = target: T2, Melatonin receptor type 1B (Homo sapiens, UniProt P49286); assay: Agonist activity at human melatonin MT2 receptor stably expressing in human HEK293 cells; type: cell-based
T2 sequence (P49286 whole entry): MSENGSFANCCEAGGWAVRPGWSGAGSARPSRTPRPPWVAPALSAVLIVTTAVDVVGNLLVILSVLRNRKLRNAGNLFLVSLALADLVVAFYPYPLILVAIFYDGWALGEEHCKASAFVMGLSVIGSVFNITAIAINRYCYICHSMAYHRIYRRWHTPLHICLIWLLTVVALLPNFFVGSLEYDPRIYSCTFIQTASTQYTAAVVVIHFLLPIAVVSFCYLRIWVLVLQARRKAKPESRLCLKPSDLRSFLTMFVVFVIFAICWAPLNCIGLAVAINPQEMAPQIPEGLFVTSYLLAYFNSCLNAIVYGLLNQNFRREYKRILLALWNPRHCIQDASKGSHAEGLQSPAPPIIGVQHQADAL

[10] = target: Melatonin receptor type 1A (Homo sapiens, UniProt P48039); assay: Agonist activity at human melatonin MT1 receptor stably expressing in human HEK293 cells; type: cell-based
Acetylcholinesterase [11] = target: T3, Acetylcholinesterase (Homo sapiens, UniProt P22303); assay: Inhibition of human recombinant AChE using acetylthiocholine chloride as substrate incubated for 20 mins by DTNB reagent based Ellman's method
Acetylcholinesterase [12] = target: T3, Acetylcholinesterase; assay: Inhibition of AChE (unknown origin) using acetylthiocholine iodide as substrate preincubated for 20 mins by DTNB reagent based Ellman's method
[13] = target: Gamma-secretase (Homo sapiens) (UniProt Q96BI3+Q9NZ42+Q8WW43+P49768+Q92542+P49810); assay: Binding affinity to his-tagged gamma-secretase (unknown origin) assessed as equilibrium constant by surface plasmon resonance analysis; type: protein-complex assay
Gamma-secretase = assay: Inhibition of gamma-secretase (unknown origin); type: protein-complex assay, Homo sapiens
[14] = target: Amyloid-beta precursor protein (Homo sapiens) (UniProt P05067); assay: Inhibition of amyloid beta (unknown origin) at 10 uM relative to control
[15] = target: Amyloid-beta precursor protein (Homo sapiens) (UniProt P05067); assay: Inhibition of amyloid beta (unknown origin) assessed as reduction in fibril disaggregation at 20 uM incubated for 7 days by ThT fluorescence assay relative to control; conditions: time 7.0 day
[16] = Cmax in mouse plasma at 250 mg/kg, po measured after 24 hrs; type: ADME, organism-based; design: dose 250 mg/kg, time 24 hrs, route po
[17] = target: Amyloid-beta precursor protein (Homo sapiens) (UniProt P05067); assay: Inhibition of amyloid beta (unknown origin) fibril formation at 20 uM incubated for 7 days by ThT fluorescence assay relative to control; conditions: time 7.0 day

Amyloid-beta precursor protein (Homo sapiens), sequence (P05067 whole entry): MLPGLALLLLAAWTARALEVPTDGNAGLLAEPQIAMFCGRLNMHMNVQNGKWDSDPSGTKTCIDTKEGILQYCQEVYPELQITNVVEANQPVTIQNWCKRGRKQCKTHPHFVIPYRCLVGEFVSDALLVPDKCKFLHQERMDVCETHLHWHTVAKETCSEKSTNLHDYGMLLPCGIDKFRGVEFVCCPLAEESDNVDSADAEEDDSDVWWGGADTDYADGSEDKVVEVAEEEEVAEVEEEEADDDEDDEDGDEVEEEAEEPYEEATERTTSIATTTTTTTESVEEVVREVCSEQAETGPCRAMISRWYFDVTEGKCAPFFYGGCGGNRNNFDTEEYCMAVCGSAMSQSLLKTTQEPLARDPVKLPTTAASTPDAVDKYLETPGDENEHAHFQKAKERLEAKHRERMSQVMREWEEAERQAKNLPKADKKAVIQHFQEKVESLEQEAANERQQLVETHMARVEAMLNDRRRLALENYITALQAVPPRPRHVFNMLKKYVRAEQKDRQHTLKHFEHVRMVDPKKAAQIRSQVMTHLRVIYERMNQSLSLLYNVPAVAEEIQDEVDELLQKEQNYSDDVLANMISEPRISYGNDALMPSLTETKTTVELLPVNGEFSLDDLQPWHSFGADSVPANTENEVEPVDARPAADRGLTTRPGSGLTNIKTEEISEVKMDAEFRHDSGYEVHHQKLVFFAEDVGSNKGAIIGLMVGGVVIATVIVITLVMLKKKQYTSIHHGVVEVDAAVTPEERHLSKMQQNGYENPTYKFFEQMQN
T3 sequence (P22303 whole entry): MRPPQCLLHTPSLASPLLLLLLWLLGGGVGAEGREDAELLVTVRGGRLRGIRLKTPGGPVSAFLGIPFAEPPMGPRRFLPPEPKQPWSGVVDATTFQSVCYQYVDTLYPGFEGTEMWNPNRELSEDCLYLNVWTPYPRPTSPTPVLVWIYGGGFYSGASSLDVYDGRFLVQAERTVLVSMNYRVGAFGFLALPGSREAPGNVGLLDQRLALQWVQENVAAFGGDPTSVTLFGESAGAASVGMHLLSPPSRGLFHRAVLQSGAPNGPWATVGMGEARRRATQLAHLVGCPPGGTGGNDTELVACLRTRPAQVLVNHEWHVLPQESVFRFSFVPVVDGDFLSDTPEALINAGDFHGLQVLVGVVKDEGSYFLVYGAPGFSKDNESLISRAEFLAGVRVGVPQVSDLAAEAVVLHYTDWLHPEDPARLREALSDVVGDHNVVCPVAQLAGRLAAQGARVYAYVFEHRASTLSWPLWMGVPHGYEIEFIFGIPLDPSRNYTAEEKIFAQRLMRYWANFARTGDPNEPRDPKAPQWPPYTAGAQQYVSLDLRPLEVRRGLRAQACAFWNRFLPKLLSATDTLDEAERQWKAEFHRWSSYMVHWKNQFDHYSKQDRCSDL
Melatonin receptor type 1A, sequence (P48039 whole entry): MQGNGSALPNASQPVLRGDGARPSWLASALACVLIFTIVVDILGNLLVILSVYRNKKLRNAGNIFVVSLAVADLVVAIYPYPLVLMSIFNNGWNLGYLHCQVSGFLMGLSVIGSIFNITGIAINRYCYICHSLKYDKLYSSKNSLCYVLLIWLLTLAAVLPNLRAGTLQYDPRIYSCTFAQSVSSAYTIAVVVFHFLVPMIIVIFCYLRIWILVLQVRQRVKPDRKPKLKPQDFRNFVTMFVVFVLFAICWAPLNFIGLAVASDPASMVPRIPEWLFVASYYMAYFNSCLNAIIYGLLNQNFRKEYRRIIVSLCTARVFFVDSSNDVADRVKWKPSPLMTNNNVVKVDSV
Beta-secretase 1, sequence (P56817 whole entry, the tested form may be a part): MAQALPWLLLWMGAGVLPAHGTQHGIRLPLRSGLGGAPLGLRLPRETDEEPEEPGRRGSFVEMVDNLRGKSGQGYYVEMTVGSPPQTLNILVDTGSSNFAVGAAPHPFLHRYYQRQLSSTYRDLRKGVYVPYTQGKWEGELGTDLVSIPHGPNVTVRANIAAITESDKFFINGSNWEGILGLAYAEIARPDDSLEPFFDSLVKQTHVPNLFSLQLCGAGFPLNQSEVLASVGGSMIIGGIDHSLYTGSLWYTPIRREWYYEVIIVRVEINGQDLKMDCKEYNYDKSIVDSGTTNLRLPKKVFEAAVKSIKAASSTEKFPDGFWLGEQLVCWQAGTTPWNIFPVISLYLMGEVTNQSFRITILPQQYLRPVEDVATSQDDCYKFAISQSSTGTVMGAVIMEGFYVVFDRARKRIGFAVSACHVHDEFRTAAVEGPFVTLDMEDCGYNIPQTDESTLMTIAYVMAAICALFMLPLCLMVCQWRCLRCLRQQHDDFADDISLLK

SMILES: COC(=O)[C@@H]1C(=O)N2CC[C@@]3(C(=O)Nc4ccccc43)[C@@H]2C[C@H]1c1ccc(-c2cccc(Cl)c2)o1
- Activity (SH-SY5Y [1]): 20%

SMILES: COC(=O)[C@@H]1C(=O)N2CC[C@@]3(C(=O)Nc4ccccc43)[C@@H]2C[C@H]1c1ccc(-c2ccc(Cl)c(Cl)c2)o1
- Activity (SH-SY5Y [1]): 61%

SMILES: CC#Cc1cncc(-c2ccc3c(c2)[C@@]2(CO3)N=C(N)C[C@H]2C(F)(F)F)c1
- IC50 (Beta-secretase 1): 115 nM

SMILES: CC[C@H]1CN2CC[C@]3(C(=O)Nc4ccccc43)C2C[C@@H]1/C(=C\OC)C(=O)OC (stereo partly drawn)
- Activity (VSMC [2]): 63%
- Activity (VSMC [3]): 88%
- Activity (VSMC [4]): 25%

SMILES: COC(=O)[C@H]1C(=O)N2CC[C@]3(C(=O)Nc4ccccc43)[C@H]2C[C@@H]1c1ccc(-c2ccc(Cl)c(Cl)c2)o1
- Activity (SH-SY5Y [5]): 42%

SMILES: CC[C@H]1CN2CC[C@]3(C(=O)Nc4ccccc43)[C@@H]2C[C@@H]1/C(=C\OC)C(=O)OC [RHYNCHOPHYLLINE]
- metabolised [6]: 22%
- EC50 [7]: 45.3 µM
- bioavailability [8]: 25.9%

SMILES: COC(=O)[C@H]1C(=O)N2CC[C@]3(C(=O)Nc4ccccc43)[C@H]2C[C@@H]1c1ccc(-c2cccc(Cl)c2)o1
- Activity (SH-SY5Y [1]): 47%

SMILES: CC[C@H]1CN2CC[C@@]3(C(=O)Nc4ccccc43)[C@@H]2C[C@@H]1/C(=C\OC)C(=O)OC [ISORHYNCHOPHYLLINE]
- metabolised [6]: 22%
- bioavailability [8]: 3.3%

SMILES: Oc1cc(O)c2c(c1)O[C@H](c1ccc(O)c(O)c1)[C@@H](O)C2 [CIANIDANOL]
- IC50 [9]: 47.3 µM
- IC50 [10]: 25.8 µM

SMILES: C/C=C1/CN2CCc3c([nH]c4ccccc34)[C@@H]2CC1/C(=C\C(=O)OC)OC (stereo partly drawn)
- IC50 (Acetylcholinesterase [11]): 10.1 µM
- IC50 (Acetylcholinesterase [12]): 3.7 µM

SMILES: CC(C)[C@@]1(NC(=O)[C@@H]2C[C@@H]3c4cccc5[nH]cc(c45)C[C@H]3N(C)C2)O[C@@]2(O)[C@@H]3CCCN3C(=O)[C@H](Cc3ccccc3)N2C1=O [DIHYDROERGOCRISTINE]
- Ke [13]: 9.8 µM
- IC50 (Gamma-secretase): 25 µM
- inhibition [14]: 30%

SMILES: Oc1cc(O)c2c(c1)O[C@H](c1ccc(O)c(O)c1)[C@H](O)[C@H]2c1c(O)cc(O)c2c1O[C@H](c1ccc(O)c(O)c1)[C@H](O)C2 [PROCYANIDIN B2]
- inhibition [15]: 63%
- Cmax [16]: 160 nM
- inhibition [17]: 94%
